Measured values published in patent US20260356851A1, “TRICYCLIC COMPOUNDS AND USES THEREOF” (HUTCHMED LIMITED, priority 2023, published 2026).

Columns and labels:
Format in all cases: cell-based
[1] = target: T1, pERK1/2 (Thr202/Tyr204), NCI-1H358 (KRAS G12C) (Homo sapiens, UniProt P01116, G12C); test: Assay of intracellular pERK1/2 (Thr202/Tyr204) phosphorylation in NCI-H358 cells (KRAS G12C); details: pERK1/2, 2 days, read-out: NCI-H358 (KRAS G12C) IC50
T1 construct: pERK1/2 HTRF read-out
Method: (§1) Example 2: Assay of intracellular pERK1/2 (Thr202/Tyr204)phosphorylation
(§2) 1. Reagents and materials: • pERK1/2 (Thr202/Tyr2O4) HIRE kit, Cisbio, Cat #64ERKPEH; • OptiPlate™-384-well plate, PerkinElmer, Cat #6007299; • 96-well plate, Coming, Cat #353072; • Instrument: EnVision2104, PerkinElmer; • Cell lines: NCI-1H358 (KRAS G12C), ATCC, CRL-5807; PANC-1 (KRAS G121D), ATCC, CRL-1469; NCI-1H441 (KRAS G12V), ATCC, HTB-174.
(§3) 2. Preparation of Reaction Solutions
(§4) • A test compound was dissolved in DMSO, diluted to 200.0 μM and further diluted 3-fold to prepare a series of test compounds at concentrations of 66.7, 22.2, 7.4, 2.5, 0.82, 0.27, 0.09 μM etc. Then 10 μL of the compound at different dilution concentrations was added to 190 μL of a DMEM medium to prepare a 10× test compound; • 1× cell lysis buffer: 4× cell lysis stock solution (provided by the kit) was diluted 4-fold with deionized water, and then 10% 100× blocking stock solution (provided by the kit) was added thereto. • pERK1/2 detection solution (prepared just before use): the pERK1/2 d2 antibody (provided by the kit) and pERK1/2 Cryptate antibody (provided by the kit) were diluted with the detection solution (provided by the kit) at a ratio of 1:1:38.
(§5) • Cells were inoculated into a 96-well plate (100 μL/well) at a density of 10000-12000/well. No cell was inoculated into a negative control well, and only the cell medium was added at 100 μL/well. The plate was placed in a cell incubator at 5% CO2 and 37° C. overnight. • 10 μL of the 10× test compound was added to the 100 μL cell culture 96-well plate; both the positive control well (that is, the control hole without chemical compound treatment) and the negative control well were charged with 10 μL of a 5% DMSO culture solution; and the plate was cultured in a cell incubator at 5% CO2 and 37° C. for 2 days. • The medium in the 96-well plate was removed; 50 μL of the 1× cell lysis buffer was added to each of the wells; the plate was placed in a microplate shaker; and lysis under shaking was carried out at 900 rpm at room temperature for 1 hour. • 16 μL of the lysis buffer in the 96-well plate was taken and transferred to a 384-well plate, followed by centrifugation at 1000 rpm for 30 s; then 4 μL of pERK1/2 detection solution was added to each well, followed by centrifugation at 1000 rpm for 30 s; and the 384-well plate was sealed with a sealing membrane and incubated at 25° C. on a low-speed shaker at 100 rpm in the dark for 2 hours. • The fluorescence value (RFU) of each well was detected on EnVision2104, with an emission wavelength 1 being 665 nm and an emission wavelength 2 being 615 nm.
(§6) Fluorescence ratio=fluorescence value665 nm/fluorescence value615 nm
(§7) Inhibition rate (%)=100−((fluorescence ratio of compound well−fluorescence ratio of negative control well)/(fluorescence ratio of positive control well−fluorescence ratio of negative control well))×100
(§8) wherein: • the fluorescence ratio of compound well refers to the fluorescence ratio of the well containing the test compounds; • the fluorescence ratio of negative control well refers to the fluorescence ratio of the cell-free control well; • the fluorescence ratio of positive control well refers to the fluorescence ratio of the cell well treated with 0.5% DMSO.
(§9) IC50 value: obtained by calculation using XL-Fit 5.0 software.

[2] = target: T2, pERK1/2 (Thr202/Tyr204), PANC-1 (KRAS G121D) (Homo sapiens, UniProt P01116, G12D); test: Assay of intracellular pERK1/2 (Thr202/Tyr204) phosphorylation in PANC-1 cells (KRAS G12D); details: pERK1/2, 2 days, read-out: PANC-1 (KRAS G12D) IC50
T2 construct: pERK1/2 HTRF read-out
Method: as §1, §2, §3, §4, §5, §6, §7, §8, §9

[3] = target: T3, pERK1/2 (Thr202/Tyr204), NCI-1H441 (KRAS G12V) (Homo sapiens, UniProt P01116, G12V); test: Assay of intracellular pERK1/2 (Thr202/Tyr204) phosphorylation in NCI-H441 cells (KRAS G12V); details: pERK1/2, 2 days, read-out: NCI-H441 (KRAS G12V) IC50
T3 construct: pERK1/2 HTRF read-out
Method: as §1, §2, §3, §4, §5, §6, §7, §8, §9

T1 sequence (P01116 1-188 isoform P01116-2 G12C): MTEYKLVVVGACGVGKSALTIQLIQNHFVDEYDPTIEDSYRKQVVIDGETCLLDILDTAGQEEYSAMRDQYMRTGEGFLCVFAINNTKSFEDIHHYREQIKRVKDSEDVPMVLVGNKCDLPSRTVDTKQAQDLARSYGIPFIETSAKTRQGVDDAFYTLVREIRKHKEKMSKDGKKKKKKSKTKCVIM
T2 sequence (P01116 1-188 isoform P01116-2 G12D): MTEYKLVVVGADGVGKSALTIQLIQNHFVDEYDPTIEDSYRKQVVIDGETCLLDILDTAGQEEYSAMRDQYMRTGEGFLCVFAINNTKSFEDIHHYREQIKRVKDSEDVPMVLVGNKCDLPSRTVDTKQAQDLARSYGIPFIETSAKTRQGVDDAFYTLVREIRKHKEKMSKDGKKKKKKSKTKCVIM
T3 sequence (P01116 1-188 isoform P01116-2 G12V): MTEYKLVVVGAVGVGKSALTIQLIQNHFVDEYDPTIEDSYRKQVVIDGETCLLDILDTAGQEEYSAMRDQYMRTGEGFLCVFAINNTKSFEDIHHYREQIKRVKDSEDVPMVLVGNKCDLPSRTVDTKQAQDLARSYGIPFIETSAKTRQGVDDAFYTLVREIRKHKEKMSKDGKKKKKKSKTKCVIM

| SMILES | IC50 [1] [nM] | IC50 [2] [nM] | IC50 [3] [nM] |
| --- | --- | --- | --- |
| C[C@@H](c1cccnc1N)N1CCOc2nc(-c3c(C(F)(F)F)ccc4[nH]ncc34)c(F)c3nc(OC[C@@]45CCCN4C[C@H](F)C5)nc1c23 (single isomer, unassigned) [Compound 27, 3-((1R or 1S)-1-(4-fluoro-2-(((2R,7aS)-2-fluorotetrahydro-1H-pyrrolizin-7a(5H)-yl)methoxy)-5-(5-(trifluoromethyl)-1H-indazol-4-yl)-8,9-dihydro-10H-7-oxa-1,3,6,10-tetraazacyclohepta[de]naphthalen-10-yl)ethyl)pyridin-2-amine] | 2 | 106 | 11 |
| CC(c1cccnc1N)N1CCOc2nc(-c3cc(O)cc4ccc(F)c(F)c34)c(F)c3ncnc1c23 (single isomer, unassigned) [Compound 29, (R or S)-4-(10-(1-(2-aminopyridin-3-yl)ethyl)-4-fluoro-9,10-dihydro-8H-7-oxa-1,3,6,10-tetraazacyclohepta[de]naphthalen-5-yl)-5,6-difluoronaphthalen-2-ol] | > 1000 | > 1000 | > 1000 |
| CC(c1cccnc1N)N1CCOc2nc(-c3cc(O)cc4ccc(F)c(F)c34)c(F)c3ncnc1c23 (single isomer, unassigned) [Compound 30, (R or S)-4-(10-(1-(2-aminopyridin-3-yl)ethyl)-4-fluoro-9,10-dihydro-8H-7-oxa-1,3,6,10-tetraazacyclohepta[de]naphthalen-5-yl)-5,6-difluoronaphthalen-2-ol] | 31 | > 1000 | 64 |
| C[C@H](c1cccnc1N)N1CCOc2nc(-c3c(C(F)(F)F)ccc4[nH]ncc34)c(F)c3nc(OC[C@@H]4CCN4CC(F)F)nc1c23 (single isomer, unassigned) [Compound 38, 3-((1R or 1S)-1-(2-(((S)-1-(2,2-difluoroethyl)azetidin-2-yl)methoxy)-4-fluoro-5-(5-(trifluoromethyl)-1H-indazol-4-yl)-8,9-dihydro-10H-7-oxa-1,3,6,10-tetraazacyclohepta[de]naphthalen-10-yl)ethyl)pyridin-2-amine] | 595 | > 1000 | 643 |
| C[C@@H](c1cccnc1N)N1CCOc2nc(-c3c(C(F)(F)F)ccc4[nH]ncc34)c(F)c3nc(OC[C@@H]4CCN4CC(F)F)nc1c23 (single isomer, unassigned) [Compound 39, 3-((1R or 1S)-1-(2-(((S)-1-(2,2-difluoroethyl)azetidin-2-yl)methoxy)-4-fluoro-5-(5-(trifluoromethyl)-1H-indazol-4-yl)-8,9-dihydro-10H-7-oxa-1,3,6,10-tetraazacyclohepta[de]naphthalen-10-yl)ethyl)pyridin-2-amine] | 2 | 237 | 7 |
| CC(c1cccnc1N)N1CCOc2nc(-c3cc(O)cc4ccc(F)c(F)c34)c(F)c3nc(OC[C@@H]4CCCN4C)nc1c23 (single isomer, unassigned) [Compound 41, 4-(10-((R or S)-1-(2-aminopyridin-3-yl)ethyl)-4-fluoro-2-(((S)-1-methylpyrrolidin-2-yl)methoxy)-9,10-dihydro-8H-7-oxa-1,3,6,10-tetraazacyclohepta[de]naphthalen-5-yl)-5,6-difluoronaphthalen-2-ol] | 223 | > 1000 | 820 |
| CC(c1cccnc1N)N1CCOc2nc(-c3cc(O)cc4ccc(F)c(F)c34)c(F)c3nc(OC[C@@H]4CCCN4C)nc1c23 (single isomer, unassigned) [Compound 42, 4-(10-((R or S)-1-(2-aminopyridin-3-yl)ethyl)-4-fluoro-2-(((S)-1-methylpyrrolidin-2-yl)methoxy)-9,10-dihydro-8H-7-oxa-1,3,6,10-tetraazacyclohepta[de]naphthalen-5-yl)-5,6-difluoronaphthalen-2-ol] | 0.9 | 69 | 5 |

Second part, the compound after the results:

| IC50 [1] [nM] | IC50 [2] [nM] | IC50 [3] [nM] | SMILES |
| --- | --- | --- | --- |
| 405 | > 1000 | > 1000 | CC(c1cccnc1N)N1CCOc2nc(-c3cc(O)cc(Cl)c3C3CC3)c(F)c3nc(OC[C@@H]4CCCN4C)nc1c23 (single isomer, unassigned) [Compound 31, 3-(10-((R or S)-1-(2-aminopyridin-3-yl)ethyl)-4-fluoro-2-(((S)-1-methylpyrrolidin-2-yl)methoxy)-9,10-dihydro-8H-7-oxa-1,3,6,10-tetraazacyclohepta[de]naphthalen-5-yl)-5-chloro-4-cyclopropylphenol] |
| 3 | 50 | 6 | CC(c1cccnc1N)N1CCOc2nc(-c3cc(O)cc(Cl)c3C3CC3)c(F)c3nc(OC[C@@H]4CCCN4C)nc1c23 (single isomer, unassigned) [Compound 32, 3-(10-((R or S)-1-(2-aminopyridin-3-yl)ethyl)-4-fluoro-2-(((S)-1-methylpyrrolidin-2-yl)methoxy)-9,10-dihydro-8H-7-oxa-1,3,6,10-tetraazacyclohepta[de]naphthalen-5-yl)-5-chloro-4-cyclopropylphenol] |
| > 1000 | > 1000 | > 1000 | CC(c1cccnc1N)N1CCOc2nc(-c3cc(O)cc(F)c3C3CC3)c(F)c3nc(OC[C@@H]4CCCN4C)nc1c23 (single isomer, unassigned) [Compound 34, 3-(10-((R or S)-1-(2-aminopyridin-3-yl)ethyl)-4-fluoro-2-(((S)-1-methylpyrrolidin-2-yl)methoxy)-9,10-dihydro-8H-7-oxa-1,3,6,10-tetraazacyclohepta[de]naphthalen-5-yl)-4-cyclopropyl-5-fluorophenol] |
| 18 | 399 | 37 | CC(c1cccnc1N)N1CCOc2nc(-c3cc(O)cc(F)c3C3CC3)c(F)c3nc(OC[C@@H]4CCCN4C)nc1c23 (single isomer, unassigned) [Compound 35, 3-(10-((R or S)-1-(2-aminopyridin-3-yl)ethyl)-4-fluoro-2-(((S)-1-methylpyrrolidin-2-yl)methoxy)-9,10-dihydro-8H-7-oxa-1,3,6,10-tetraazacyclohepta[de]naphthalen-5-yl)-4-cyclopropyl-5-fluorophenol] |
| > 1000 | > 1000 | > 1000 | CC(c1cccnc1N)N1CCOc2nc(-c3cc(O)cc(Cl)c3C3CC3)c(F)c3nc(OC[C@@]45CCCN4C[C@H](F)C5)nc1c23 (single isomer, unassigned) [Compound 43, 3-(10-((R or S)-1-(2-aminopyridin-3-yl)ethyl)-4-fluoro-2-(((2R,7aS)-2-fluorotetrahydro-1H-pyrrolizin-7a(5H)-yl)methoxy)-9,10-dihydro-8H-7-oxa-1,3,6,10-tetraazacyclohepta[de]naphthalen-5-yl)-5-chloro-4-cyclopropylphenol] |
| 0.1 | 3 | 0.6 | CC(c1cccnc1N)N1CCOc2nc(-c3cc(O)cc(Cl)c3C3CC3)c(F)c3nc(OC[C@@]45CCCN4C[C@H](F)C5)nc1c23 (single isomer, unassigned) [Compound 44, 3-(10-((R or S)-1-(2-aminopyridin-3-yl)ethyl)-4-fluoro-2-(((2R,7aS)-2-fluorotetrahydro-1H-pyrrolizin-7a(5H)-yl)methoxy)-9,10-dihydro-8H-7-oxa-1,3,6,10-tetraazacyclohepta[de]naphthalen-5-yl)-5-chloro-4-cyclopropylphenol] |
